Where two headings read alike, the source gives them in different places. One block for each compound: values may come before it.
Columns and labels:
E. coli 250CF1 (Tem3) = assay: microbe, parasite or virus in culture; type: cell-based; details: 24 hours at 37° C.; for MIC: Escherichia coli
Experimental: (§1) The operation is carried out as follows, using the so-called micro-dilution in liquid medium method.
(§2) A series of concentrations of the β-lactamine is prepared in the presence of a constant concentration (5 mg/l) of the product to be studied, each is then seeded with various bacterial strains.
(§3) After incubation for 24 hours in a heating chamber at 37° C., the growth inhibition is evaluated by the absence of any bacterial development, which allows the minimal inhibitory concentrations (MIC) for each strain to be determined, expressed in milligrams/l.

E. coli 250HT22 (Tem2) = assay: MIC, micro-dilution in liquid medium, β-lactamine with product at 5 mg/l; type: cell-based; details: 24 hours at 37° C.; for MIC: Escherichia coli
Experimental: as §1, §2, §3

[1] = tested on: E. cloacae 293HT6 (Class C); assay: as above; type: cell-based; details: 24 hours at 37° C.; for MIC: Enterobacter cloacae
Experimental: as §1, §2, §3

E. coli 250SJ1 (Tem7) = assay: as above; type: cell-based; details: 24 hours at 37° C.; for MIC: Escherichia coli
Experimental: as §1, §2, §3

[2] = tested on: S. aureus 011GO66 (PeniR); assay: as above; type: cell-based; details: 24 hours at 37° C.; for MIC: Staphylococcus aureus
Experimental: as §1, §2, §3

E. coli 250HT21 (Tem1) = assay: as above; type: cell-based; details: 24 hours at 37° C.; for MIC: Escherichia coli
Experimental: as §1, §2, §3

E. coli 250HT26 (SHV1) = assay: as above; type: cell-based; details: 24 hours at 37° C.; for MIC: Escherichia coli
Experimental: as §1, §2, §3

[3] = tested on: E. coli 250HT23 (Class D); assay: as above; type: cell-based; details: 24 hours at 37° C.; for MIC: Escherichia coli
Experimental: as §1, §2, §3

E. coli 250BE1 (SHV4) = assay: as above; type: cell-based; details: 24 hours at 37° C.; for MIC: Escherichia coli
Experimental: as §1, §2, §3

β-lactamase TEM1 = molecular target: T1, β-lactamase TEM1 (Escherichia coli, UniProt P62593); assay: Inhibition of isolated β-lactamase Tem-1 (Nitrocefin hydrolysis); type: biochemical, E.coli 250HT21; details: 100 μM Nitrocefin, 50 mM sodium phosphate buffer pH7.0, 37° C.
T1 construct: The β-lactamases are isolated from bacterial strains which are resistant to penicillins and cephalosporins; endogenous in cells; host or cells: E. coli 250HT21 (natural producer; French-press lysate, 100,000 g supernatant)
T1 sequence (P62593 24-286 limits assumed): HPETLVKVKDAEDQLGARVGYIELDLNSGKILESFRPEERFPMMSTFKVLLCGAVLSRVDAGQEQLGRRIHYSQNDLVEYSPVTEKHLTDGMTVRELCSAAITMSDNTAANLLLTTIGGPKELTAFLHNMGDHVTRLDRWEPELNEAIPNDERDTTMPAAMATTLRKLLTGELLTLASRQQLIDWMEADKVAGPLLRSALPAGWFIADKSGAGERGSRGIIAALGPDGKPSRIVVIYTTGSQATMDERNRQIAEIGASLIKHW
Experimental: (§4) A. Preparation of the β-lactamases Tem-1 and P99
(§5) The β-lactamases are isolated from bacterial strains which are resistant to penicillins and cephalosporins (Tem1 and P99 are produced by E.coli 250HT21 and E.Cloacae 293HT6 respectively).
(§6) The bacteria are cultured at 37° C. in heart-brain culture at 37 g/l (DIFCO). They are harvested at the end of the exponential phase, cooled down and centrifuged. The bacterial pellets are taken up in sodium phosphate buffer 50 mM, pH 7.0 and centrifuged again. The bacteria are taken up in two volumes of the same buffer and lyzed using a French-Press maintained at 4° C. After centrifugation for 1 hour at 100,000 g, at 4° C., the supernatants containing the soluble fraction of the bacterial extracts are recovered and frozen at −80° C.
(§7) The method uses Nitrocefin (OXOID), cephalosporin chromogene as substrate, of which the product hydrolyzed by the B-lactamases is red and absorbs at 485 nm. Beta-lactamase activity is determined kinetically by measurement of the absorbance variation at 485 nm resulting from the hydrolysis of the substrate using a plate spectrophotometer (Spectra Max More Molecular Devices). The experiments are carried out at 37° C. The quantity of enzyme was normalized and the measurements are carried out at initial speed.
(§8) Two measurements were carried out, without preincubation and with preincubation of the enzyme and inhibitor (5 mn), in order to test the irreversibility of the reaction. The products are tested at 6 or 8 concentrations in duplicate. The reaction mixture contains 100 μM of Nitrocefin and 50 mM sodium phosphate buffer pH7.0.
(§9) The hydrolysis speeds are measured with and without inhibitor. The concentration of inhibitor which inhibits by 50% the hydrolysis reaction of Nitrocefin by the enzyme (CI50) is determined. The data is processed using GraFit software (Erathycus Software).

β-lactamase P99 = molecular target: T2, β-lactamase P99 (Enterobacter cloacae, UniProt P05364); assay: biochemical; details: 100 μM Nitrocefin, 50 mM sodium phosphate buffer pH7.0, 37° C.; read-out: IC50 nM/P99
T2 construct: The β-lactamases are isolated from bacterial strains which are resistant to penicillins and cephalosporins; endogenous in cells; host or cells: Enterobacter cloacae 293HT6 (natural producer; French-press lysate, 100,000 g supernatant)
T2 sequence (P05364 21-381): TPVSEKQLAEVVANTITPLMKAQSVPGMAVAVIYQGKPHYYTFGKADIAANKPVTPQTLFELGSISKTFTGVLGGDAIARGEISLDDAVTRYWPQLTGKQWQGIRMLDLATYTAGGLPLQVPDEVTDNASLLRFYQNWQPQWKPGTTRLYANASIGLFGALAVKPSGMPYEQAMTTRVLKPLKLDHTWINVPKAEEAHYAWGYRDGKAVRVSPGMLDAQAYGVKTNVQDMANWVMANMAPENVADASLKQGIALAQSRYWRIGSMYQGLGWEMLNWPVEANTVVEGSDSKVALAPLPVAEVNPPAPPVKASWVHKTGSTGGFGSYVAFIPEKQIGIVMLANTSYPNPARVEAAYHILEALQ
Experimental: as §4, §5, §6, §7, §8, §9

[4] = tested on: P. aeruginosa 391HT8 (PSE); assay: MIC, micro-dilution in liquid medium, β-lactamine with product at 5 mg/l; type: cell-based; details: Pseudomonas aeruginosa, 24 hours at 37° C.
Experimental: as §1, §2, §3

Serratia 301HT6 = assay: as above; type: cell-based; details: Trial 10, 301HT6 Serratia, 24 hours at 37° C.
Experimental: as §1, §2, §3

[5] = tested on: P. aeruginosa 391HT7 (PSE); assay: as above; type: cell-based; details: Pseudomonas aeruginosa, 24 hours at 37° C.
Experimental: as §1, §2, §3

Structure (SMILES): O=C(OCCc1ccncc1)[C@H]1CC[C@@H]2CN1C(=O)N2OS(=O)(=O)[O-].[Na+] (relative stereo) [Example 49, sodium salt of trans 2-(4-pyridinyl)ethyl 7-oxo-6-(sulphooxy)-1,6-diazabicyclo[3.2.1]octane-2-carboxylate]
MIC of Cefotaxime in combination with the compound (E. coli 250CF1 (Tem3); compound at 5 mg/l, Trial 4, 250CF1 E. coli Tem3): 0.08 µg/mL | MIC of Piperacillin in combination with the compound (E. coli 250CF1 (Tem3); compound at 5 mg/l, Trial 4, 250CF1 Tem3): 1.2 µg/mL | MIC of Cefotaxime in combination with the compound (E. coli 250HT22 (Tem2); compound at 5 mg/l, Trial 3, 250HT22 E. coli Tem2): <=0.04 μg/ml | MIC of Piperacillin in combination with the compound (E. coli 250HT22 (Tem2); compound at 5 mg/l, Trial 3, 250HT22 Tem2): 2.5 µg/mL | MIC of Piperacillin in combination with the compound ([1]; compound at 5 mg/l, Trial 9, 293HT6 Class): 10 µg/mL | MIC of Cefotaxime in combination with the compound (E. coli 250SJ1 (Tem7); compound at 5 mg/l, Trial 5, 250SJ1 E. coli Tem7): <=0.04 μg/ml | MIC of Piperacillin in combination with the compound (E. coli 250SJ1 (Tem7); compound at 5 mg/l, Trial 5, 250SJ1 Tem7): 5 µg/mL | MIC of Cefotaxime in combination with the compound ([2]; compound at 5 mg/l, Trial 1, 011GO66 S. aureus PeniR): 2.5 µg/mL | MIC of Piperacillin in combination with the compound ([2]; compound at 5 mg/l, Trial 1, 011GO66 peniR): 1.2 µg/mL | MIC of Cefotaxime in combination with the compound (E. coli 250HT21 (Tem1); compound at 5 mg/l, Trial 2, 250HT21 E. coli Tem1): <=0.04 μg/ml | MIC of Piperacillin in combination with the compound (E. coli 250HT21 (Tem1); compound at 5 mg/l, Trial 2, 250HT21 Tem1): 1.2 µg/mL | MIC of Cefotaxime in combination with the compound (E. coli 250HT26 (SHV1); compound at 5 mg/l, Trial 6, 250HT26 E. coli SHV1): <=0.04 μg/ml | MIC of Piperacillin in combination with the compound (E. coli 250HT26 (SHV1); compound at 5 mg/l, Trial 6, 250HT26 SHV1): 20 µg/mL | MIC of Piperacillin in combination with the compound ([3]; compound at 5 mg/l, Trial 8, 250HT23 Class D): 10 µg/mL | MIC of Cefotaxime in combination with the compound ([3]; compound at 5 mg/l, Trial 8, 250HT23 E. coli Class D): <=0.04 μg/ml | MIC of Cefotaxime in combination with the compound (E. coli 250BE1 (SHV4); compound at 5 mg/l, Trial 7, 250BE1 E. coli SHV4): <=0.04 μg/ml | MIC of Piperacillin in combination with the compound (E. coli 250BE1 (SHV4); compound at 5 mg/l, Trial 7, 250BE1 SHV4): 20 µg/mL | IC50 (β-lactamase TEM1): 8.2 nM | IC50 (β-lactamase P99): 98 nM

MIC (E. coli 250CF1 (Tem3); Trial 4, 250CF1 E. coli Tem3, read-out: MIC of Cefotaxime alone): > 40 µg/mL | MIC ([4]; Trial 12, 391HT8 P. aeruginosa PSE, read-out: MIC of Cefotaxime alone): 40 µg/mL | MIC (E. coli 250HT22 (Tem2); Trial 3, 250HT22 E. coli Tem2, read-out: MIC of Cefotaxime alone): ≤ 0.04 µg/mL | MIC (Serratia 301HT6; read-out: MIC of Cefotaxime alone): 0.3 µg/mL | MIC ([5]; Trial 11, 391HT7 P. aeruginosa PSE, read-out: MIC of Cefotaxime alone): 40 µg/mL | MIC (E. coli 250SJ1 (Tem7); Trial 5, 250SJ1 E. coli Tem7, read-out: MIC of Cefotaxime alone): 0.08 µg/mL | MIC ([2]; Trial 1, 011GO66 S. aureus PeniR, read-out: MIC of Cefotaxime alone): 1.2 µg/mL | MIC (E. coli 250HT21 (Tem1); Trial 2, 250HT21 E. coli Tem1, read-out: MIC of Cefotaxime alone): ≤ 0.04 µg/mL | MIC (E. coli 250HT26 (SHV1); Trial 6, 250HT26 E. coli SHV1, read-out: MIC of Cefotaxime alone): 0.6 µg/mL | MIC ([3]; Trial 8, 250HT23 E. coli Class D, read-out: MIC of Cefotaxime alone): 0.08 µg/mL | MIC (E. coli 250BE1 (SHV4); Trial 7, 250BE1 E. coli SHV4, read-out: MIC of Cefotaxime alone): 40 µg/mL
Structure (SMILES): CO/N=C(\C(=O)N[C@@H]1C(=O)N2C(C(=O)O)=C(COC(C)=O)CS[C@H]12)c1csc(N)n1 [Cefotaxime, cefotaxime, reference compound]
MIC ([1]; Trial 9, 293HT6 E. cloacae Class C, read-out: MIC of Cefotaxime alone): > 40 µg/mL

MIC (E. coli 250CF1 (Tem3); Trial 4, 250CF1 Tem3, read-out: MIC of Piperacillin alone): > 40 µg/mL | MIC ([4]; Trial 12, 391HT8 PSE, read-out: MIC of Piperacillin alone): > 40 µg/mL | MIC (E. coli 250HT22 (Tem2); Trial 3, 250HT22 Tem2, read-out: MIC of Piperacillin alone): > 40 µg/mL | MIC (Serratia 301HT6; read-out: MIC of Piperacillin alone): 5 µg/mL | MIC ([5]; Trial 11, 391HT7 PSE, read-out: MIC of Piperacillin alone): > 40 µg/mL | MIC (E. coli 250SJ1 (Tem7); Trial 5, 250SJ1 Tem7, read-out: MIC of Piperacillin alone): > 40 µg/mL | MIC ([2]; Trial 1, 011GO66 peniR, read-out: MIC of Piperacillin alone): 10 µg/mL | MIC (E. coli 250HT21 (Tem1); Trial 2, 250HT21 Tem1, read-out: MIC of Piperacillin alone): > 40 µg/mL | MIC (E. coli 250HT26 (SHV1); Trial 6, 250HT26 SHV1, read-out: MIC of Piperacillin alone): > 40 µg/mL | MIC ([3]; Trial 8, 250HT23 Class D, read-out: MIC of Piperacillin alone): > 40 µg/mL | MIC (E. coli 250BE1 (SHV4); Trial 7, 250BE1 SHV4, read-out: MIC of Piperacillin alone): > 40 µg/mL
Structure (SMILES): CCN1CCN(C(=O)N[C@@H](C(=O)N[C@@H]2C(=O)N3[C@@H]2SC(C)(C)[C@@H]3C(=O)O)c2ccccc2)C(=O)C1=O [Piperacillin, piperacillin, reference compound]
MIC ([1]; Trial 9, 293HT6 Class, read-out: MIC of Piperacillin alone): > 40 µg/mL

Source: patent publication US7612087B2, “Heterocyclic compounds as inhibitors of beta-lactamases” (Novexel, priority 2002, dated 2009)
